Data from ChEMBL document CHEMBL2073980, “Molecular cloning and characterization of the murine bile salt export pump” (Gene, 2000).

Key:
Format in all cases: functional, cell membranes, Membrane vesicle
Design in all cases: scale not given: the % may be the effect or the level left
[1] = target: T1, Bsep (bile salt export pump) (Mus musculus, UniProt Q9QY30); experiment: TP_TRANSPORTER: inhibition of Taurocholate uptake (Taurochorate: 5 uM, CDCA: 50 uM) in membrane vesicles isolated from Bsep-expressing Balb-3T3 cells; conditions: probe taurocholate, read-out: Activity
T1 sequence (Q9QY30 whole entry): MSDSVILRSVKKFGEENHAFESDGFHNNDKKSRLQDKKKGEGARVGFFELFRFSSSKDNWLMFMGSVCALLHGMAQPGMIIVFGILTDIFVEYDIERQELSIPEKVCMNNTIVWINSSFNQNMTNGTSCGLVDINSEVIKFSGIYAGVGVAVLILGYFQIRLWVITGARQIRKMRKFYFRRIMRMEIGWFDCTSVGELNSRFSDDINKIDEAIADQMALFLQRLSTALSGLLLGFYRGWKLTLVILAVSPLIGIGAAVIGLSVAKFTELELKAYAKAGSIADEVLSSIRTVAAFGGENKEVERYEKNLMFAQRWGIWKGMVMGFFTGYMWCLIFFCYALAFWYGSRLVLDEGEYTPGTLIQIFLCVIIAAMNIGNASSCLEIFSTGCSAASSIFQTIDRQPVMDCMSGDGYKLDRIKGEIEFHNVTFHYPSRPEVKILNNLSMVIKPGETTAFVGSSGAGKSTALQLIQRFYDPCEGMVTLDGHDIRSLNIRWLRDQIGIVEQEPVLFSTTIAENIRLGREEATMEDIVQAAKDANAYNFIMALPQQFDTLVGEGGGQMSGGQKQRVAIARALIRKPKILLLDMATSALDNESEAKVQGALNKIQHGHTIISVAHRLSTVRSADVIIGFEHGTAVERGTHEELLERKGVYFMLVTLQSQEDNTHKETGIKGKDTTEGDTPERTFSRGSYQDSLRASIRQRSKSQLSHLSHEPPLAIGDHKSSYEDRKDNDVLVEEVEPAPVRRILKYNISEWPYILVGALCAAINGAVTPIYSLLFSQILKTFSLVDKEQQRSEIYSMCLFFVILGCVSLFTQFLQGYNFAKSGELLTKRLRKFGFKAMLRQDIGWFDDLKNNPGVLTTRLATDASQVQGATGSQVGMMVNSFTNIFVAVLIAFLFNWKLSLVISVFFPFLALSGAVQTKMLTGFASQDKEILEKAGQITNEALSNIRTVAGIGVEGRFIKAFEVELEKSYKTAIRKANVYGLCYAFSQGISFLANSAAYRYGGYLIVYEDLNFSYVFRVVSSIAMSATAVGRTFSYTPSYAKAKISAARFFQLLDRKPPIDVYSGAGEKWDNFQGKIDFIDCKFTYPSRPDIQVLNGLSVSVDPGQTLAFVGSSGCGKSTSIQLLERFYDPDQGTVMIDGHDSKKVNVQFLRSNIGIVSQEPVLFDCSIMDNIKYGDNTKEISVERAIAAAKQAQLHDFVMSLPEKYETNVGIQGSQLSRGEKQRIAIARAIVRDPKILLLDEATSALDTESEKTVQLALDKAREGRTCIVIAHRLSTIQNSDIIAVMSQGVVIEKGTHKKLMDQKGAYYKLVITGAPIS

[2] = target: T1, Bsep (bile salt export pump); experiment: TP_TRANSPORTER: inhibition of Taurocholate uptake (Taurochorate: 5 uM, TCDC: 50 uM) in membrane vesicles isolated from Bsep-expressing Balb-3T3 cells; conditions: probe taurocholate, read-out: Activity
[3] = target: T1, Bsep (bile salt export pump); experiment: TP_TRANSPORTER: inhibition of Taurocholate uptake (Taurochorate: 5 uM, TDCA: 50 uM) in membrane vesicles isolated from Bsep-expressing Balb-3T3 cells; conditions: probe taurocholate, read-out: Activity
Bile salt export pump = target: T2, Bile salt export pump (Mus musculus, UniProt Q9QY30); experiment: TP_TRANSPORTER: inhibition of Taurocholate uptake (Taurochorate: 5 uM, UDCA: 50 uM) in membrane vesicles isolated from Bsep-expressing Balb-3T3 cells; conditions: balb/3t3, 50 µM
T2 sequence (Q9QY30 whole entry): T1 sequence (Q9QY30 whole entry)

`C[C@H](CCC(=O)O)[C@H]1CC[C@H]2[C@@H]3[C@H](O)C[C@@H]4C[C@H](O)CC[C@]4(C)[C@H]3CC[C@]12C` [CHENODIOL] showed an activity at 50 µM [1] of 11%.
Compound `C[C@H](CCC(=O)NCCS(=O)(=O)O)[C@H]1CC[C@H]2[C@@H]3[C@H](O)C[C@@H]4C[C@H](O)CC[C@]4(C)[C@H]3CC[C@]12C` [TAUROCHENODEOXYCHOLATE] has an activity at 50 µM [2] of 25%.
In the case of `C[C@H](CCC(=O)NCCS(=O)(=O)O)[C@H]1CC[C@H]2[C@@H]3CC[C@@H]4C[C@H](O)CC[C@]4(C)[C@H]3C[C@H](O)[C@]12C` [TAURODEOXYCHOLIC ACID], the activity at 50 µM [3] is reported as 5%.
`C[C@H](CCC(=O)O)[C@H]1CC[C@H]2[C@@H]3[C@@H](O)C[C@@H]4C[C@H](O)CC[C@]4(C)[C@H]3CC[C@]12C` [URSODIOL] showed an Activity (Bile salt export pump) of 51%.
